Assay results: patent publication US12281057B2 (VERTEX PHARMACEUTICALS INCORPORATED, priority 2017, dated 2025)
pIC50: −log10 of the molar value.

The molecules below were run against truncated form of human NaV 1.8 with full channel activity (Homo sapiens, UniProt Q9Y5Y9) (assay: E-VIPR Assay Method A for detecting and measuring Nav inhibition (HEK cells, membrane potential FRET dyes, electrical stimulation)). Conditions: HEK cells expressing human NaV 1.8, HS (human serum) in compound loading buffer, 11 point dose response, top dose 3 μM, Table 20A, read-out: Nav 1.8 MedChem Optical Assay EVIPR Assay Method A HS IC50.
truncated form of human NaV 1.8 with full channel activity, sequence (Q9Y5Y9 126-1722 limits assumed): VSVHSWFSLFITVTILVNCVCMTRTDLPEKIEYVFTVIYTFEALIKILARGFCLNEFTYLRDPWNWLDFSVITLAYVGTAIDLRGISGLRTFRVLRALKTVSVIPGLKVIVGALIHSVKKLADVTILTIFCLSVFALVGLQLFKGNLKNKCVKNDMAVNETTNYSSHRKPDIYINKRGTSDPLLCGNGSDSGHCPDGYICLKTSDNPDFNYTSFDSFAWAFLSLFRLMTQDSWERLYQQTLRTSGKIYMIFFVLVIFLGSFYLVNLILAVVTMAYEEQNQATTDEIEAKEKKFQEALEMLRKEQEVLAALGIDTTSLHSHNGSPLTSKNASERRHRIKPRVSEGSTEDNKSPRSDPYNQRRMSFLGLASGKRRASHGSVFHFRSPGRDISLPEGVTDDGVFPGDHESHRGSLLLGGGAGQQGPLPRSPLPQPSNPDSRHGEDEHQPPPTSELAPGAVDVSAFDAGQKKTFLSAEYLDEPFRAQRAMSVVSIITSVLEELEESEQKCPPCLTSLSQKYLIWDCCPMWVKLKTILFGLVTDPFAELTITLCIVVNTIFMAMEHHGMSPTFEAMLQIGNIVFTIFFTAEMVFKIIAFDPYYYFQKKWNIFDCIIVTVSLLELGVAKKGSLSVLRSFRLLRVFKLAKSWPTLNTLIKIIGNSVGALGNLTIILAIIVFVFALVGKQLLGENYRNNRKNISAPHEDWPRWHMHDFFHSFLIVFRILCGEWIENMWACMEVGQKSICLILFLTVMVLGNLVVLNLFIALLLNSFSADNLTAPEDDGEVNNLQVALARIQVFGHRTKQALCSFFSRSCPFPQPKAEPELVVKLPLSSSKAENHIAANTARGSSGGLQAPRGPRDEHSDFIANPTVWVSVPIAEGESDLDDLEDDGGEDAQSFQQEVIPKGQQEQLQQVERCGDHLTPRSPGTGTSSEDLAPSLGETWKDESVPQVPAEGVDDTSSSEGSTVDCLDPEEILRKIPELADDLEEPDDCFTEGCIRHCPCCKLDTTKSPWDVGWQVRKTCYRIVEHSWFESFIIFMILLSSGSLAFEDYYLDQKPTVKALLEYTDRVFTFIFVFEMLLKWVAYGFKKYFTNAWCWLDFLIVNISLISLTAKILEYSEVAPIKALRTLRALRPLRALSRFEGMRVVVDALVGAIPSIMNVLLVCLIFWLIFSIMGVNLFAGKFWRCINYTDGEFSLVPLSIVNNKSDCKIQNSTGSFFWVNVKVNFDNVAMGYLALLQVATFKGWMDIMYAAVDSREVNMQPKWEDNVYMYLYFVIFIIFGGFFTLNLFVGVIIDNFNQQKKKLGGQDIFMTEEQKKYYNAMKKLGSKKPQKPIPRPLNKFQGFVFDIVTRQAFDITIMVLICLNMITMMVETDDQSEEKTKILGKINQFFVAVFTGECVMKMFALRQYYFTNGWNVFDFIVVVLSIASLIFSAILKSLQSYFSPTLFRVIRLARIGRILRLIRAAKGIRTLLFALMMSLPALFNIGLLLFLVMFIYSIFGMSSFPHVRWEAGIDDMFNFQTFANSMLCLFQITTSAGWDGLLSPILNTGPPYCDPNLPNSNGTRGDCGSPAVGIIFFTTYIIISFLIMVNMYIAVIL
Assay type: cell-based
Method in brief: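 Read-out: FRET membrane-potential dye ratio (460/580 nm) before and during E-VIPR field stimulation at 10 Hz for 10 s, expressed as % activity between DMSO and positive controls. Cells: HEK with truncated human NaV1.8; compound preincubated 30 min at room temp, final DMSO 0.625%.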
`[2H]C([2H])([2H])Oc1c(Oc2cc(C(F)(F)F)cc(F)c2C(=O)Nc2ccnc(C(N)=O)c2)ccc(OC(F)(F)F)c1F` [Compound 223, 4-[[2-Fluoro-6-[3-fluoro-2-(trideuteriomethoxy)-4-(trifluoromethoxy)phenoxy]-4-(trifluoromethyl)benzoyl]amino]pyridine-2-carboxamide] gave a pIC50 of 8.10.
Work on `[2H]C([2H])([2H])Oc1c(Oc2cc(Cl)cc(Cl)c2C(=O)Nc2ccnc(C(N)=O)c2)ccc(OC(F)(F)F)c1F` [Compound 224, 4-[[2,4-Dichloro-6-[3-fluoro-2-(trideuteriomethoxy)-4-(trifluoromethoxy)phenoxy]benzoyl]amino]pyridine-2-carboxamide] yielded a pIC50 of 8.05.
In the case of `[2H]C([2H])([2H])Oc1c(Oc2ccc(OC(F)(F)F)c(F)c2C(=O)Nc2ccnc(C(N)=O)c2)ccc(OC(F)(F)F)c1F` [Compound 225, 4-[[2-Fluoro-6-[3-fluoro-2-(trideuteriomethoxy)-4-(trifluoromethoxy)phenoxy]-3-(trifluoromethoxy)benzoyl]amino]pyridine-2-carboxamide], the pIC50 was 8.52.
With `[2H]C([2H])([2H])Oc1c(Oc2ccc(C(F)(F)F)c(F)c2C(=O)Nc2cc(C(N)=O)ncc2C)ccc(OC(F)(F)F)c1F` [Compound 227, 4-[[2-Fluoro-6-[3-fluoro-2-(trideuteriomethoxy)-4-(trifluoromethoxy)phenoxy]-3-(trifluoromethyl)benzoyl]amino]-5-methyl-pyridine-2-carboxamide] the pIC50 was 8.70.
In the case of `[2H]C([2H])([2H])Oc1c(Oc2ccc(C(F)(F)F)c(F)c2C(=O)Nc2ccnc(C(=O)NC)c2)ccc(OC(F)(F)F)c1F` [Compound 228, 4-[[2-Fluoro-6-[3-fluoro-2-(trideuteriomethoxy)-4-(trifluoromethoxy)phenoxy]-3-(trifluoromethyl)benzoyl]amino]-N-methyl-pyridine-2-carboxamide], the pIC50 was 8.15.
For `[2H]C([2H])([2H])Oc1c(Oc2ccc(C(F)(F)F)c(F)c2C(=O)Nc2ccc(C(=O)NC)nc2)ccc(OC(F)(F)F)c1F` [Compound 229, 5-[[2-Fluoro-6-[3-fluoro-2-(trideuteriomethoxy)-4-(trifluoromethoxy)phenoxy]-3-(trifluoromethyl)benzoyl]amino]-N-methyl-pyridine-2-carboxamide], the pIC50 was 7.33.
`[2H]C([2H])([2H])Oc1c(Oc2ccc(OC(F)(F)F)c(NC)c2C(=O)Nc2ccnc(C(=O)NC)c2)ccc(OC(F)(F)F)c1F` [Compound 230, 4-[[6-[3-Fluoro-2-(trideuteriomethoxy)-4-(trifluoromethoxy)phenoxy]-2-(methylamino)-3-(trifluoromethoxy)benzoyl]amino]-N-methyl-pyridine-2-carboxamide] was tested, and the pIC50 was 6.60.
Work on `[2H]C([2H])([2H])Oc1c(Oc2ccc(OC(F)(F)F)c(F)c2C(=O)Nc2cc(C(N)=O)ncc2C)ccc(OC(F)(F)F)c1F` [Compound 231, 4-[[2-Fluoro-6-[3-fluoro-2-(trideuteriomethoxy)-4-(trifluoromethoxy)phenoxy]-3-(trifluoromethoxy)benzoyl]amino]-5-methyl-pyridine-2-carboxamide] yielded a pIC50 of 8.05.
`[2H]C([2H])([2H])c1c(Oc2ccc(C(F)(F)F)c(F)c2C(=O)Nc2ccnc(C(N)=O)c2)ccc(OC(F)(F)F)c1F` [Compound 232, 4-[[2-Fluoro-6-[3-fluoro-2-(trideuteriomethyl)-4-(trifluoromethoxy)phenoxy]-3-(trifluoromethyl)benzoyl]amino]pyridine-2-carboxamide] gave a pIC50 of 7.77.
`[2H]C([2H])([2H])Oc1c(Oc2cc(Cl)c(C(F)F)c(OC)c2C(=O)Nc2ccnc(C(N)=O)c2)ccc(OC(F)(F)F)c1F` [Compound 233] was tested, and the pIC50 was 8.40.
With `[2H]C([2H])([2H])Oc1c(Oc2cc(Cl)c(C(F)F)c(F)c2C(=O)Nc2ccnc(C(N)=O)c2)ccc(OC(F)(F)F)c1F` [Compound 234, 4-[[4-Chloro-3-(difluoromethyl)-2-fluoro-6-[3-fluoro-2-(trideuteriomethoxy)-4-(trifluoromethoxy)phenoxy]benzoyl]amino]pyridine-2-carboxamide] the pIC50 was 8.40.
`[2H]C([2H])([2H])Oc1c(Oc2ccc(C(F)F)c(F)c2C(=O)Nc2ccnc(C(N)=O)c2)ccc(OC(F)(F)F)c1F` [Compound 235, 4-[[3-(Difluoromethyl)-2-fluoro-6-[3-fluoro-2-(trideuteriomethoxy)-4-(trifluoromethoxy)phenoxy]benzoyl]amino]pyridine-2-carboxamide] gave a pIC50 of 8.30.
`[2H]C([2H])([2H])Oc1c(Oc2ccc(C(F)F)c(F)c2C(=O)Nc2ccc(C(N)=O)nc2)ccc(OC(F)(F)F)c1F` [Compound 236, 5-[[3-(Difluoromethyl)-2-fluoro-6-[3-fluoro-2-(trideuteriomethoxy)-4-(trifluoromethoxy)phenoxy]benzoyl]amino]pyridine-2-carboxamide] gave a pIC50 of 7.35.
Molecule `[2H]C([2H])([2H])Oc1c(Oc2ccc(C(F)F)c(F)c2C(=O)Nc2cc(C(N)=O)ncc2C)ccc(OC(F)(F)F)c1F` [Compound 237, 4-[[3-(Difluoromethyl)-2-fluoro-6-[3-fluoro-2-(trideuteriomethoxy)-4-(trifluoromethoxy)phenoxy]benzoyl]amino]-5-methyl-pyridine-2-carboxamide] has a pIC50 of 7.92.
Molecule `COc1cc(OC(F)(F)F)ccc1Oc1cc(C(F)(F)F)ncc1C(=O)Nc1ccc(C)c(C(N)=O)c1` [Compound 238, N-(3-carbamoyl-4-methyl-phenyl)-4-[2-methoxy-4-(trifluoromethoxy)phenoxy]-6-(trifluoromethyl)pyridine-3-carboxamide] has a pIC50 of 6.40.
`COc1cc(OC(F)(F)F)ccc1Oc1cc(C(F)(F)F)ncc1C(=O)Nc1ccc(OC)c(C(N)=O)c1` [Compound 239, N-(3-carbamoyl-4-methoxy-phenyl)-4-[2-methoxy-4-(trifluoromethoxy)phenoxy]-6-(trifluoromethyl)pyridine-3-carboxamide] gave a pIC50 of 5.57.
Molecule `[2H]C([2H])([2H])Oc1c(Oc2ccc(Cl)c(F)c2C(=O)Nc2cc(C(N)=O)ncc2C)ccc(OC(F)(F)F)c1F` [Compound 240, 4-[[3-chloro-2-fluoro-6-[3-fluoro-2-(trideuteriomethoxy)-4-(trifluoromethoxy)phenoxy]benzoyl]amino]-5-methyl-pyridine-2-carboxamide] has a pIC50 of 7.96.
In the case of `NC(=O)c1cc(NC(=O)c2c(Oc3ccc(OC(F)(F)F)c(F)c3)ccc(OC(F)(F)F)c2F)ccn1` [Compound 241, 4-[[2-fluoro-6-[3-fluoro-4-(trifluoromethoxy)phenoxy]-3-(trifluoromethoxy)benzoyl]amino]pyridine-2-carboxamide], the pIC50 was 7.42.
`Cc1cnc(C(N)=O)cc1NC(=O)c1c(Oc2ccc(OC(F)(F)F)cc2)ccc(C(F)(F)F)c1F` [Compound 242, 4-[[2-fluoro-6-[4-(trifluoromethoxy)phenoxy]-3-(trifluoromethyl)benzoyl]amino]-5-methyl-pyridine-2-carboxamide] gave a pIC50 of 7.36.
Work on `NC(=O)c1cc(NC(=O)c2c(Oc3ccc(OC(F)(F)F)cc3)ccc(OC(F)(F)F)c2F)ccn1` [Compound 243, 4-[[2-fluoro-3-(trifluoromethoxy)-6-[4-(trifluoromethoxy)phenoxy]benzoyl]amino]pyridine-2-carboxamide] yielded a pIC50 of 7.62.
For `Cc1cnc(C(N)=O)cc1NC(=O)c1c(Oc2ccc(OC(F)(F)F)cc2)ccc(Cl)c1F` [Compound 244, 4-[[3-chloro-2-fluoro-6-[4-(trifluoromethoxy)phenoxy]benzoyl]amino]-5-methyl-pyridine-2-carboxamide], the pIC50 was 7.14.
Work on `Cc1cnc(C(N)=O)cc1NC(=O)c1c(Oc2ccc(OC(F)(F)F)c(F)c2)ccc(Cl)c1F` [Compound 245, 4-[[3-chloro-2-fluoro-6-[3-fluoro-4-(trifluoromethoxy)phenoxy]benzoyl]amino]-5-methyl-pyridine-2-carboxamide] yielded a pIC50 of 7.44.
Work on `Cc1cnc(C(N)=O)cc1NC(=O)c1c(Oc2ccc(OC(F)(F)F)c(F)c2)ccc(C(F)(F)F)c1F` [Compound 246, 4-[[2-fluoro-6-[3-fluoro-4-(trifluoromethoxy)phenoxy]-3-(trifluoromethyl)benzoyl]amino]-5-methyl-pyridine-2-carboxamide] yielded a pIC50 of 7.68.
In the case of `NC(=O)c1ccc(NC(=O)c2c(Oc3ccc(OC(F)(F)F)cc3)ccc(C(F)(F)F)c2F)cc1` [Compound 264, N-(4-carbamoylphcnyl)-2-fluoro-6-(4-(trifluoromethoxy)phenoxy)-3-(trifluoromethyl)benzamide], the pIC50 was 7.27.
For `CNC(=O)c1cc(NC(=O)c2cnc(C(F)(F)F)cc2Oc2ccc(OC(F)(F)F)cc2OC)cc(C)n1` [Compound 265, 4-[[4-[2-methoxy-4-(trifluoromethoxy)phenoxy]-6-(trifluoromethyl)pyridine-3-carbonyl]amino]-N,6-dimethyl-pyridine-2-carboxamide], the pIC50 was 5.84.
Molecule `N#Cc1cc(F)ccc1Oc1ccc(C(F)(F)F)c(F)c1C(=O)Nc1ccc(F)c(C(N)=O)c1` [Compound 295, N-(3-carbamoyl-4-fluoro-phenyl)-6-(2-cyano-4-fluoro-phenoxy)-2-fluoro-3-(trifluoromethyl)benzamide] has a pIC50 of 6.70.
`COc1nc(Cl)ccc1Oc1ccc(C(F)(F)F)c(F)c1C(=O)Nc1ccnc(C(N)=O)c1` [Compound 303, 4-(6-((6-chloro-2-methoxypyridin-3-yl)oxy)-2-fluoro-3-(trifluoromethyl)benzamido)picolinamide] gave a pIC50 of 6.72.
